According to PubChem BioAssay (NCI):
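Where inhibition never reached the appropriate level, the endpoint shown equals the highest concentration tested. Otherwise, values were interpolated linearly from a five-concentration, 48-hour dose response in 96-well plates. Here, GI50 denotes the concentration required for 50% inhibition of growth. Definition used: TGI = concentration required for complete inhibition of growth.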

Key:
Experiment in all cases: NCI tumour cell line growth inhibition, 48 h
MALME-3M melanoma = test system: MALME-3M melanoma
P388 leukemia = test system: P388 leukemia
HOP-62 NSCLC = test system: HOP-62 NSCLC
SK-OV-3 ovarian = test system: SK-OV-3 ovarian
OVCAR-8 ovarian = test system: OVCAR-8 ovarian
NCI-H23 lung = test system: NCI-H23 lung
CAKI-1 renal = test system: CAKI-1 renal
MDA-MB-231 breast = test system: MDA-MB-231 breast
MCF7 breast = test system: MCF7 breast
NCI-H522 lung = test system: NCI-H522 lung
OVCAR-4 ovarian = test system: OVCAR-4 ovarian
DLD-1 colon = test system: DLD-1 colon
LOX IMVI melanoma = test system: LOX IMVI melanoma
SW-620 colon = test system: SW-620 colon
SNB-75 CNS = test system: SNB-75 CNS
U251 CNS = test system: U251 CNS
UO-31 renal = test system: UO-31 renal
786-0 renal = test system: 786-0 renal
HCT-116 colon = test system: HCT-116 colon
KM12 colon = test system: KM12 colon
SNB-78 CNS = test system: SNB-78 CNS
NCI-H226 lung = test system: NCI-H226 lung
SK-MEL-2 melanoma = test system: SK-MEL-2 melanoma
M14 melanoma = test system: M14 melanoma
CCRF-CEM leukemia = test system: CCRF-CEM leukemia
LXFL 529 NSCLC = test system: LXFL 529 NSCLC
MOLT-4 leukemia = test system: MOLT-4 leukemia
HL-60(TB) leukemia = test system: HL-60(TB) leukemia
NCI-H460 lung = test system: NCI-H460 lung
HCC-2998 colon = test system: HCC-2998 colon
M19-MEL melanoma = test system: M19-MEL melanoma
SR leukemia = test system: SR leukemia
IGROV1 ovarian = test system: IGROV1 ovarian
UACC-62 melanoma = test system: UACC-62 melanoma
SNB-19 CNS = test system: SNB-19 CNS
A498 renal = test system: A498 renal
UACC-257 melanoma = test system: UACC-257 melanoma
RXF 393 renal = test system: RXF 393 renal
SF-268 CNS = test system: SF-268 CNS
DMS 273 small cell lung = test system: DMS 273 small cell lung
ACHN renal = test system: ACHN renal
RXF-631 renal = test system: RXF-631 renal
HOP-18 NSCLC = test system: HOP-18 NSCLC
SK-MEL-28 melanoma = test system: SK-MEL-28 melanoma
A549 NSCLC = test system: A549 NSCLC
SN12C renal = test system: SN12C renal
DMS 114 small cell lung = test system: DMS 114 small cell lung
KM20L2 colon = test system: KM20L2 colon
RPMI-8226 leukemia = test system: RPMI-8226 leukemia
TK-10 renal = test system: TK-10 renal
SK-MEL-5 melanoma = test system: SK-MEL-5 melanoma
K-562 leukemia = test system: K-562 leukemia
HCT-15 colon = test system: HCT-15 colon
COLO 205 colon = test system: COLO 205 colon
SF-539 CNS = test system: SF-539 CNS

With `COc1ccc2c3c(c4cc(OC)c(OC)cc4c2c1)C[C@H]1CCCCN1C3` the GI50 (MALME-3M melanoma) was 1.82 pM, the TGI (MALME-3M melanoma) was 0.00988 nM and the TGI (P388 leukemia) was 0.00512 µM. It also gave a TGI (HOP-62 NSCLC) of 0.00165 nM, a TGI (SK-OV-3 ovarian) of 0.0149 µM and a TGI (OVCAR-8 ovarian) of 0.0231 µM. The GI50 (NCI-H23 lung) was 2.01 pM, the TGI (NCI-H23 lung) was 0.000279 µM and the TGI (CAKI-1 renal) was 0.00103 µM. It also gave a TGI (MDA-MB-231 breast) of 1.92 pM, a TGI (MCF7 breast) of 0.0316 µM and a GI50 (NCI-H522 lung) of 2.82 pM. The TGI (NCI-H522 lung) was 0.000216 µM, the TGI (OVCAR-4 ovarian) was 0.00591 µM and the TGI (DLD-1 colon) was 0.038 µM. For the same compound, the TGI (LOX IMVI melanoma) was 0.029 µM, the GI50 (SW-620 colon) was 0.00889 µM and the GI50 (SNB-75 CNS) was 1.78 pM. For the same compound, the TGI (SNB-75 CNS) was 0.000103 µM, the TGI (U251 CNS) was 0.0212 µM and the TGI (UO-31 renal) was 0.00442 nM. The TGI (786-0 renal) was 0.000212 µM, the TGI (HCT-116 colon) was 0.011 µM and the TGI (KM12 colon) was 0.00184 nM. For the same compound, the TGI (SNB-78 CNS) was 0.00897 µM.
For `CCOC(=O)NC/C=C/CO`, the TGI (NCI-H226 lung) was over 100 µM, the TGI (SK-MEL-2 melanoma) was over 100 µM and the TGI (M14 melanoma) was over 100 µM. For the same compound, the TGI (CCRF-CEM leukemia) was over 100 µM, the TGI (LXFL 529 NSCLC) was over 100 µM and the TGI (MOLT-4 leukemia) was over 100 µM. The TGI (MALME-3M melanoma) was over 100000 nM, the TGI (HL-60(TB) leukemia) was over 100 µM and the TGI (NCI-H460 lung) was over 100 µM. It also gave a TGI (HCC-2998 colon) of over 100 µM, a TGI (M19-MEL melanoma) of over 100 µM and a TGI (SR leukemia) of over 100 µM. The TGI (IGROV1 ovarian) was over 100 µM, the TGI (UACC-62 melanoma) was over 100 µM and the TGI (HOP-62 NSCLC) was over 100000 nM. The TGI (SNB-19 CNS) was over 100 µM, the TGI (A498 renal) was over 100 µM and the TGI (UACC-257 melanoma) was over 100 µM. For the same compound, the TGI (SK-OV-3 ovarian) was over 100 µM, the TGI (OVCAR-8 ovarian) was over 100 µM and the TGI (RXF 393 renal) was over 100 µM. For the same compound, the TGI (SF-268 CNS) was over 100 µM, the TGI (CAKI-1 renal) was over 100 µM and the TGI (DMS 273 small cell lung) was over 100 µM. The TGI (NCI-H522 lung) was over 100 µM, the TGI (ACHN renal) was over 100 µM and the TGI (OVCAR-4 ovarian) was over 100 µM. The TGI (RXF-631 renal) was over 100 µM, the TGI (HOP-18 NSCLC) was over 100 µM and the TGI (SK-MEL-28 melanoma) was over 100 µM. It also gave a TGI (A549 NSCLC) of over 100 µM, a TGI (DLD-1 colon) of over 100 µM and a TGI (SN12C renal) of over 100 µM. For the same compound, the TGI (DMS 114 small cell lung) was over 100 µM, the TGI (KM20L2 colon) was over 100 µM and the TGI (SW-620 colon) was over 100 µM. It also gave a TGI (SNB-75 CNS) of over 100 µM, a TGI (U251 CNS) of over 100 µM and a TGI (RPMI-8226 leukemia) of over 100 µM. For the same compound, the TGI (TK-10 renal) was over 100 µM, the TGI (UO-31 renal) was over 100000 nM and the TGI (786-0 renal) was over 100 µM. For the same compound, the TGI (HCT-116 colon) was over 100 µM, the TGI (SK-MEL-5 melanoma) was over 100 µM and the TGI (KM12 colon) was over 100000 nM. It also gave a TGI (K-562 leukemia) of over 100 µM, a TGI (HCT-15 colon) of over 100 µM and a TGI (COLO 205 colon) of over 100 µM. It also gave a TGI (SNB-78 CNS) of over 100 µM and a TGI (SF-539 CNS) of over 100 µM.
